Here are results for two substances from US20220257782A1, “PEPTIDE THERAPEUTICS FOR AUTOIMMUNE DISEASES AND INFLAMMATORY DISEASES” (GENESEN CO., LTD., priority 2019, published 2022).

One data set deals with T1, TLR4 (Mus musculus, UniProt Q9QUK6).
T1 construct: endogenous in cells; host or cells: RAW264.7
T1 sequence (Q9QUK6 26-835): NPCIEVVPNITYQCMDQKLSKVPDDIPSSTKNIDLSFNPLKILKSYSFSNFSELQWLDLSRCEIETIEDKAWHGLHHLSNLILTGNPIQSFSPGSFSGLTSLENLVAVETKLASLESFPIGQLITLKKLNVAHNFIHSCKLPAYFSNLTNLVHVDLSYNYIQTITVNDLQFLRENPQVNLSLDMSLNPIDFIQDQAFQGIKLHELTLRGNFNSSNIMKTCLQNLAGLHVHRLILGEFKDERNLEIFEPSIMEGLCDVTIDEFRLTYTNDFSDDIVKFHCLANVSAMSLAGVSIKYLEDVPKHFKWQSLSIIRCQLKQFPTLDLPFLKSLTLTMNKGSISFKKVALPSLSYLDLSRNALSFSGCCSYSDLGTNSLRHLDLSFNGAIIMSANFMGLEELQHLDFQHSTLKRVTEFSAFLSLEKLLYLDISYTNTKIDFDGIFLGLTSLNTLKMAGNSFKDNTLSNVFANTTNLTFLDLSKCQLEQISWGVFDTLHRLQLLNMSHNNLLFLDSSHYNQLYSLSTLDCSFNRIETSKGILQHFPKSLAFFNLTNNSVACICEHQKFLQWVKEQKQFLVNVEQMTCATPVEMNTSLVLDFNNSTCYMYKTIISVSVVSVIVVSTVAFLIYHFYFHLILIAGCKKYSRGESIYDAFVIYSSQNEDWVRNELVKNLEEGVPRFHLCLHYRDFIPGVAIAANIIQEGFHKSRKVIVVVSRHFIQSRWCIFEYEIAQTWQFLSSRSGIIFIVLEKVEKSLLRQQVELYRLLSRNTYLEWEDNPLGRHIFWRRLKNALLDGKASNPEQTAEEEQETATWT
T1 sequence (Q9JHF9 19-160 partner): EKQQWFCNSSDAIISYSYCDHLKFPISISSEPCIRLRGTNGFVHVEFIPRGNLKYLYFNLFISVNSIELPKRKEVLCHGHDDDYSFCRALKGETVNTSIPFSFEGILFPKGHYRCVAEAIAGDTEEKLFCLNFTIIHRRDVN
The experiment in a line: Cytokine secretion (ELISA) in LPS-stimulated RAW264.7 cells. Type of data set: cell-based. The settings on record: FIG. 2E. As to the method: THP-1-derived macrophages and RAW264.7 cells were dispensed into 96-well plates (BD Biosciences) at a density of 2×10^5 cells/well and cultured overnight. After 24 hours of treatment, IL-6 secretion was analyzed using Mouse IL-6 ELISA MAX™ Deluxe (BioLegend, San Diego, Calif., USA), and TNF-α production was evaluated using the Mouse TNF alpha ELISA Ready-SET-GO!® kit (eBioscience, San Diego, Calif., USA). Then, the plate was analyzed at each wavelength using a microplate spectrophotometer system (Molecular Devices).
On the technique in general: ELISA stands for enzyme-linked immunosorbent assay.

The test system of another data set is HEK-Blue™ hTLR4 cells. Nature of the data set: Cell viability assay (MTT/MTS), HEK-BLUE hTLR4 cells. The class given is cell-based, human. The settings on record: FIG. 2A. As to the method: (§1) HEK-BLUE™ hTLR4 cells were dispensed at a density of 5×10^4 cells/well, and RAW264.7 cells and THP-1 cells were dispensed thereinto at a density of 2×10^5 cells/well. All cells were cultured overnight in 96-well plates (BD Biosciences, San Jose, Calif., USA). Cell viability was determined using colorimetric […] (MTT) assay (Sigma-Aldrich) and/or MTS (3-(4,5-dimethylthiazol-2-yl)-5-(3-carboxymethoxyphenyl)-2-(4-sulfophenyl)-2H-tetrazolium) (Promega Madison, Wis., USA), which was performed as described previously (Kwon, H. K. et al., Toxicological sciences: an official journal of the Society of Toxicology 148, 204-219 (2015)).

The subject of a further data set is RAW264.7 cells. Nature of the data set: Cell viability assay (MTT/MTS), RAW264.7 cells. Conditions: concentration of 50 μM or below; FIG. 2B. Type of data set: cell-based, mouse. Here is the method: as §1
A further data set has as its system THP-1 cells. The experiment in a line: Cell viability assay (MTT/MTS), THP-1 cells. The class given is cell-based, human. Conditions: FIG. 2C. Here is the method:
as §1

Data set [1] deals with IMQ-induced psoriasis in C57BL/6 mice. The experiment in a line: Imiquimod-induced psoriasis mouse model. The class given is in vivo. Conditions: FIG. 5D. As to the method: 6-7 week old C57BL/6 mice were purchased from Orient Bio Inc. (Seongnam, Korea). The mice were housed under specific pathogen-free conditions and provided ad libitum with a standard laboratory diet (STD). All the animal experiments were approved by the Institutional Animal Care and Use Committee (IACUC) of Ajou University (Approval No. 2017-0002). 62.5 mg of ALDARA™ cream (including 5% IMQ; Aldara, 3M Pharmaceutical LLC.) was applied for five consecutive days, resulting in symptoms similar to psoriasis. The normal group was not treated with IMQ but only injected with PBS. […] Factors such as erythema, scaling, wrinkles, and thickening were independently scored from 0 to 4: 0, none; 1, a little; 2, middle; 3, significant; 4, very prominent. Erythema, scaling, and thickness were scored under the close supervision of an experienced researcher. […]
A skin sample obtained from the dorsal lesion of each mouse was fixed in 4% paraformaldehyde solution, embedded in paraffin, and sectioned at a thickness of 7 μm on a glass slide. […] The thickness of the skin was measured using a Leica DMi8 fluorescence microscope which utilizes a Leica LAS X Hardware Configurator. IMQ-mediated inflammation in the skin was evaluated using a mouse-specific HRC/DAB Detection IHC Kit (Abcam, Cat. No. AB64259) with primary antibodies recognizing CD68, CD4, and IL-17. […]

Ends that are not written are not given here.

With PFVYLI (cell penetrating peptide), the “inhibitory effect on LPS-stimulated RAW 264.7 cells” value in the data set with TLR4 is on record as “did not show any inhibitory effect”.

Consider RQIKIWFQNRRMKWKKPWCKYQMLQALT [MIP2], for which the “toxicity in HEK-Blue hTLR4 cells” value with HEK-Blue™ hTLR4 cells was “do not show toxicity”. Moreover, the “cytotoxic effect in RAW264.7 cells” value with RAW264.7 cells is reported as “absence of a cytotoxic effect”. In the data set with THP-1 cells, the “toxicity in THP-1 cells” value is recorded as “does not show toxicity”. Also, the body weight result in data set [1] was “no significant difference compared to PBS- and MTX-treated mice”.
